The results in this text go back to ChEMBL document CHEMBL3808275, “Design, synthesis and SARs of novel salicylanilides as potent inhibitors of RANKL-induced osteoclastogenesis and bone resorption” (Eur J Med Chem, 2016).

Where only a bound is given, the exact number is not on record here.

Data set [1] relates to RAW264.7. Briefly: Inhibition of RANKL-induced osteoclast differentiation in mouse RAW264.7 cells assessed as TRAP-positive multinucleated cells level at 2.5 uM incubated with compound in presence of RANKL for 4 days by TRAP staining based light microscopic analysis relative to RANKL alone. Also noted: scale not given: the % may be the effect or the level left. Format: functional.

The nature of data set [2]: Cytotoxicity against mouse RAW264.7 cells assessed as survival rate at 2.5 uM after 24 hrs by MTT assay. Format: cell-based. The note with it: read-out: Survival. In general terms: Formazan colour is commonly taken as a measure of viable cells.
A short description of data set [3]: Cytotoxicity against mouse RAW264.7 cells assessed as reduction in cell viability after 24 hrs by MTT assay. Format: cell-based.
Data set [4] has as its system RAW264.7. Nature of the data set: Cytotoxicity against mouse RAW264.7 cells assessed as reduction in cell viability at 5 uM after 24 hrs by MTT assay. Format: cell-based. The note with it: raw264.7, 24 h.

Take `O=C1c2cc(I)ccc2Oc2cc([N+](=O)[O-])ccc2N1c1ccc(Cl)cc1F`: the Activity in the data set on RAW264.7 [1] is 75.2%; in the data set on RAW264.7 [4], “Toxic”. Further, the viability at 24 h, 2.5 µM in data set [2] was 94.9%. For the same molecule, the CC50 at 24 h in data set [3] was more than 40 µM.

Take `O=c1oc2ccc(I)cc2c(=O)n1-c1ccc(Cl)cc1F`: the Activity in the data set on RAW264.7 [1] is listed as 38%; with RAW264.7 [4], “Toxic”. Also, the viability at 24 h, 2.5 µM in data set [2] is 117%. In data set [3], the CC50 at 24 h is 8.9 µM.

In the case of `O=c1oc2ccc(I)cc2c(=O)n1-c1ccc(I)cc1F`, the Activity in the data set with RAW264.7 [1] is 36.1%; with RAW264.7 [4], “Toxic”. Moreover, the viability at 24 h, 2.5 µM in data set [2] was 107%. For the same molecule, the CC50 at 24 h in data set [3] turned out to be 7.6 µM.

`O=C1c2cc(F)ccc2Oc2cc([N+](=O)[O-])ccc2N1c1ccc(Br)cc1F`: the Activity with RAW264.7 [1] is recorded as 88.7%; in the data set with RAW264.7 [4] it was “Toxic”. Moreover, in data set [2], the viability at 24 h, 2.5 µM is 98.8%. In addition, in data set [3], the CC50 at 24 h is more than 40 µM.

With `O=c1oc2ccccc2c(=O)n1-c1ccc(I)cc1F`, the Activity is recorded as 66.7% in the data set with RAW264.7 [1] and “Toxic” in the data set on RAW264.7 [4]. Besides, the viability at 24 h, 2.5 µM in data set [2] was found to be 105%. In data set [3], the CC50 at 24 h is 24.5 µM.

Consider `O=C1c2cc(Br)ccc2Oc2cc([N+](=O)[O-])ccc2N1c1ccc(F)cc1F`, for which the Activity is recorded as 90.1% with RAW264.7 [1] and “Toxic” with RAW264.7 [4]. The viability at 24 h, 2.5 µM in data set [2] worked out at 94%. In addition, in data set [3], the CC50 at 24 h is more than 40 µM.

As for `O=C1c2cc(Cl)ccc2Oc2cc([N+](=O)[O-])ccc2N1c1ccc(Br)cc1F`, the figures for the Activity in the data set on RAW264.7 [1] and in the data set with RAW264.7 [4] were 77.2% and “Toxic”, respectively. The viability at 24 h, 2.5 µM in data set [2] is 100%. In data set [3], the CC50 at 24 h was more than 40 µM.

Regarding `O=c1oc2ccc(Cl)cc2c(=O)n1-c1ccc(Br)cc1F`, the Activity is reported as 45.5% in the data set on RAW264.7 [1] and “Toxic” in the data set with RAW264.7 [4]. In addition, in data set [2], the viability at 24 h, 2.5 µM turned out to be 114%. Also, in data set [3], the CC50 at 24 h was determined as 8.1 µM.

For the molecule `O=C1c2cc(Cl)ccc2Oc2cc([N+](=O)[O-])ccc2N1c1ccc(Cl)cc1F`, the Activity is 59.4% with RAW264.7 [1] and “Toxic” with RAW264.7 [4]. In addition, the viability at 24 h, 2.5 µM in data set [2] came to 100%. Further, in data set [3], the CC50 at 24 h is more than 40 µM.

With `O=C1c2ccccc2Oc2cc([N+](=O)[O-])ccc2N1c1ccc(Cl)cc1F`, the Activity in the data set on RAW264.7 [1] was 97.1%; in the data set with RAW264.7 [4] it was “Toxic”. Also, the viability at 24 h, 2.5 µM in data set [2] was 103%. In addition, the CC50 at 24 h in data set [3] was more than 40 µM.

Regarding `O=c1oc2ccc(F)cc2c(=O)n1-c1ccc(Cl)cc1F`, the results for the Activity in the data set on RAW264.7 [1] and with RAW264.7 [4] were 29.8% and “Toxic”, respectively. Besides, in data set [2], the viability at 24 h, 2.5 µM was 107%. Further, the CC50 at 24 h in data set [3] was determined as 7.9 µM.

Regarding `O=c1oc2ccc(F)cc2c(=O)n1-c1ccc(F)cc1F`, the Activity in the data set on RAW264.7 [1] is given as 89.7%; in the data set on RAW264.7 [4], “Toxic”. In addition, in data set [2], the viability at 24 h, 2.5 µM was determined as 103%. In data set [3], the CC50 at 24 h was 19.9 µM.

With `O=C1c2cc(F)ccc2Oc2cc([N+](=O)[O-])ccc2N1c1ccc(Cl)cc1F`, the figures for the Activity in the data set with RAW264.7 [1] and in the data set on RAW264.7 [4] were 93.1% and “Toxic”, respectively. Further, in data set [2], the viability at 24 h, 2.5 µM came to 91.2%. Further, the CC50 at 24 h in data set [3] was more than 40 µM.

Regarding `O=C(Nc1ccc(F)cc1F)c1cc(Cl)ccc1O`, the Activity with RAW264.7 [1] is reported as 93.3%; in the data set with RAW264.7 [4], “Toxic”. The viability at 24 h, 2.5 µM in data set [2] worked out at 109%. The CC50 at 24 h in data set [3] came out at 14.6 µM.

With `O=C1c2cc(Cl)ccc2Oc2cc([N+](=O)[O-])ccc2N1c1ccc(I)cc1F`, the Activity was 73.8% in the data set with RAW264.7 [1] and “Toxic” with RAW264.7 [4]. Further, the viability at 24 h, 2.5 µM in data set [2] worked out at 89.3%. The CC50 at 24 h in data set [3] is more than 40 µM.

As for `O=C(O)c1cc(Cl)ccc1O` [5-CHLOROSALICYLIC ACID], the values for the Activity in the data set on RAW264.7 [1] and in the data set with RAW264.7 [4] were 96.6% and “Toxic”, respectively. Besides, in data set [2], the viability at 24 h, 2.5 µM was 113%. Also, the cytotoxic concentration (CC50) at 24 h in data set [3] is more than 40 µM.

In the case of `O=C(Nc1ccc(Cl)cc1F)c1cc(F)ccc1O`, the Activity with RAW264.7 [1] is 27.1%; with RAW264.7 [4], “Toxic”. Further, the viability at 24 h, 2.5 µM in data set [2] turned out to be 99.5%. In addition, the CC50 at 24 h in data set [3] came out at 7.7 µM.

`O=c1oc2ccc(F)cc2c(=O)n1-c1ccc(Br)cc1F`: the Activity in the data set on RAW264.7 [1] is given as 25.5%; in the data set on RAW264.7 [4], “Toxic”. In addition, the viability at 24 h, 2.5 µM in data set [2] is 103%. Also, the CC50 at 24 h in data set [3] stood at 7.2 µM.

Consider `O=c1oc2ccc(Br)cc2c(=O)n1-c1ccc(Cl)cc1F`, for which the Activity in the data set with RAW264.7 [1] is 67.4%; in the data set on RAW264.7 [4] it was “Toxic”. Besides, the viability at 24 h, 2.5 µM in data set [2] was determined as 82.1%. The CC50 at 24 h in data set [3] worked out at 7.5 µM.

`O=c1oc2ccc(I)cc2c(=O)n1-c1ccc(Br)cc1F`: the Activity with RAW264.7 [1] is reported as 58.2%; in the data set on RAW264.7 [4], “Toxic”. Besides, the viability at 24 h, 2.5 µM in data set [2] turned out to be 109%. The CC50 at 24 h in data set [3] was 8.3 µM.

`O=c1oc2ccc(Br)cc2c(=O)n1-c1ccc(I)cc1F`: the results for the Activity in the data set on RAW264.7 [1] and with RAW264.7 [4] were 39% and “Toxic”, respectively. In addition, the viability at 24 h, 2.5 µM in data set [2] is 96.8%. Also, in data set [3], the 50% cytotoxic concentration (CC50) at 24 h was 7.9 µM.

`O=c1oc2ccccc2c(=O)n1-c1ccc(Cl)cc1F`: the results for the Activity in the data set with RAW264.7 [1] and in the data set on RAW264.7 [4] were 71.1% and “Toxic”, respectively. For the same molecule, in data set [2], the viability at 24 h, 2.5 µM is 92.5%. Further, the CC50 at 24 h in data set [3] was 24.4 µM.

In the case of `O=C(Nc1ccc(F)cc1F)c1cc(F)ccc1O`, the Activity with RAW264.7 [1] was 93.7%; in the data set with RAW264.7 [4] it was “Toxic”. For the same molecule, the viability at 24 h, 2.5 µM in data set [2] was found to be 99.2%. Further, in data set [3], the half-maximal cytotoxic concentration (CC50) at 24 h amounted to 15.7 µM.

Take `O=C1c2cc(Cl)ccc2Oc2cc([N+](=O)[O-])ccc2N1c1ccc(F)cc1F`: the Activity in the data set on RAW264.7 [1] is 70.6%; in the data set with RAW264.7 [4] it was “Toxic”. In addition, the viability at 24 h, 2.5 µM in data set [2] is 99.6%. Moreover, the cytotoxic concentration (CC50) at 24 h in data set [3] is more than 40 µM.

Turning to `O=C(Nc1ccc(Cl)cc1F)c1cc(Br)ccc1O`, the Activity in the data set on RAW264.7 [1] was 39.6%; in the data set on RAW264.7 [4], “Toxic”. Moreover, in data set [2], the viability at 24 h, 2.5 µM is 103%. Moreover, the CC50 at 24 h in data set [3] was 9.2 µM.

For the molecule `O=C(O)c1cc(I)ccc1O`, the Activity with RAW264.7 [1] is on record as 90.5%; in the data set with RAW264.7 [4], “Toxic”. For the same molecule, in data set [2], the viability at 24 h, 2.5 µM stood at 98.9%. Further, the CC50 at 24 h in data set [3] was more than 40 µM.

For `O=C1c2cc(Br)ccc2Oc2cc([N+](=O)[O-])ccc2N1c1ccc(Br)cc1F`, the Activity in the data set with RAW264.7 [1] is 84.2%; with RAW264.7 [4], “Toxic”. In addition, in data set [2], the viability at 24 h, 2.5 µM amounted to 88.7%. Besides, the CC50 at 24 h in data set [3] was more than 40 µM.

Consider `O=c1oc2ccc(Cl)cc2c(=O)n1-c1ccc(F)cc1F`, for which the Activity in the data set on RAW264.7 [1] is reported as 91.9%; with RAW264.7 [4], “Toxic”. In addition, the viability at 24 h, 2.5 µM in data set [2] was found to be 116%. Besides, the cytotoxic concentration (CC50) at 24 h in data set [3] amounted to 13.4 µM.

In the case of `O=c1oc2ccc(Br)cc2c(=O)n1-c1ccc(F)cc1F`, the values for the Activity with RAW264.7 [1] and in the data set with RAW264.7 [4] were 98.3% and “Toxic”, respectively. Further, the viability at 24 h, 2.5 µM in data set [2] was 107%. For the same molecule, the CC50 at 24 h in data set [3] is 16 µM.

Take `O=C(Nc1ccc(Br)cc1F)c1cc(I)ccc1O`: the Activity is 29.9% with RAW264.7 [1] and “Toxic” in the data set with RAW264.7 [4]. The viability at 24 h, 2.5 µM in data set [2] came out at 104%. In addition, in data set [3], the CC50 at 24 h was determined as 8.4 µM.

Turning to `O=C1c2ccccc2Oc2cc([N+](=O)[O-])ccc2N1c1ccc(I)cc1F`, the Activity in the data set with RAW264.7 [1] is on record as 88.6%; in the data set with RAW264.7 [4], “Toxic”. The viability at 24 h, 2.5 µM in data set [2] stood at 87.2%. For the same molecule, the cytotoxic concentration (CC50) at 24 h in data set [3] is more than 40 µM.

By CC50 is commonly meant the concentration at which the toxic effect on the cells reaches its halfway point.
